Assays:
G2019S LRRK2 = target: T1, G2019S LRRK2 (Homo sapiens, UniProt Q5S007, G2019S); assay: LRRK2 degradation assay, G2019S LRRK2-HiBit expressed from plasmid in HEK293 cells; assay type: cell-based; conditions: HEK293 cells transfected with HiBit-tagged G2019S LRRK2, 24 hours compound incubation
T1 construct: expressed in transfected cells; host or cells: HEK293 (ATCC CRL-1573), transient transfection, ubiquitin promoter
Procedure: (§1) The assay measures the degradation of wildtype and G2019S LRRK2 tagged with a HiBit tag on the C-terminus of the protein that was expressed from a mammalian expression vector, driven by the ubiquitin promoter in HEK293 cells. Each compound dose-response was repeated on two separate days, on three separate plates each day.
(§2) Plasmid Preparation. Transfection mixes were assembled as follows and incubated for 30 minutes at room temperature. In a 15 mL tube, 5.25 mL Opti-MEM (no additions) was mixed with 17 μL Firefly Luciferase plasmid at 1 μg/μL and 158 μL WT plasmid DNA at 1 μg/μL (175 μg total DNA) were mixed by flicking. In a new 15 mL tube, 5.25 mL OptiMEM was mixed with 17 μL Firefly Luciferase plasmid at 1 μg/μL and 158 μL G2019S plasmid DNA at 1 μg/μL (175 μg total DNA) were mixed by flicking. X-tremeGene HP was mixed thoroughly using a vortex. Next, 175 μL was added to each tube and flicked to mix. Both tubes were left to incubate for 30 minutes at room temperature.
(§3) While the transfection mixes were incubating, HEK293 cells (acquired from ATCC; ATCC CRL-1573) were harvested with trypsin. Once cells are detached, the cells were resuspended in 12 mL OptiMEM+5% FBS and transferred to a 50 mL tube. The cells were mixed well and counted. Using OptiMEM+5% FBS, the cells were diluted in two 250 mL conical tubes at 0.71×10^6 cells/mL in 70 mL. One tube was labeled “WT” and the other “G2019S”. The WT and G2019S transfection mixes were added dropwise to the corresponding 250 mL tubes. The tubes were mixed first by pipetting then by swirling. The tubes were incubated at room temperature for at least 5 minutes.
(§4) Each tube was swirled before dispensing and after every three plates. Seventy microliters of cells were dispensed with WT or G2019S DNA to seven plates each. Three plates of each were tested with compound plate one (preparation described below) and three plates of each were tested with compound plate two (preparation described below). The first plate from each set served as a “prime” plate and was not used to test compounds. Each plate was incubated in the hood for 10 minutes before placing in the 37° C. incubator for 24 hours.
(§5) Preparation of Compound and Assay Plates. Two compound plates were made using 96 well polypropylene plates. Compounds were made up at 10 mM and were diluted to 1 mM in 30 μL. Each dose response curve included a well of DMSO, as a negative control and for normalization, and a well of 0.5 μM of Exemplary Compound 4 as a positive control. In addition to seven test compounds, each plate also included a dose response of Exemplary Compound 4. The compound plates were spun down along at 1200 rpm for 2 minutes.
(§6) The two compound plates were then mixed and 2 μL was diluted in intermediate plates having 248 μL of Opti-Mem in each well. Next, 10 μL diluted compounds from the intermediate plates were added to each test plate (three WT and three G2019S plates per compound plate for a total of 12 assay plates). The plates were incubated for 24 hours at 37° C.
(§7) All assay plates and all Nano-Glo Dual-Luciferase Reporter Assay System components (except for the DLR substrate) were equilibrated to room temperature. Next, the luciferase buffer was mixed with the lyophilized amber bottle until fully dissolved, and 75 μL of the luciferase mixture was added to each well of each assay plate. The assay plates were incubated for 10 minutes at room temperature with shaking for at least 5 minutes, and then read on a plate reader.
(§8) Developing Plates and Analyzing Data. One milliliter of DLR substrate and 1 mL LgBiT Protein were added to the Stop and Glo buffer, and 75 μL of the mixture was added to each well of each plate. Optically clear seals were added to each plate and each plate was incubated for 20 minutes with shaking for at least 10 minutes, and then read on a plate reader. […]

wildtype LRRK2 = target: T2, wildtype LRRK2 (Homo sapiens, UniProt Q5S007); assay: LRRK2 degradation assay, wildtype LRRK2-HiBit expressed from plasmid in HEK293 cells; assay type: cell-based; conditions: HEK293 cells transfected with HiBit-tagged wildtype LRRK2, 24 hours compound incubation; for Dmax: read-out: **WT Dmax (%); for DC50: read-out: *WT DC50
T2 construct: expressed in transfected cells; host or cells: HEK293 (ATCC CRL-1573), transient transfection, ubiquitin promoter
Procedure: as §1, §2, §3, §4, §5, §6, §7, §8

T1 sequence (Q5S007 whole entry G2019S): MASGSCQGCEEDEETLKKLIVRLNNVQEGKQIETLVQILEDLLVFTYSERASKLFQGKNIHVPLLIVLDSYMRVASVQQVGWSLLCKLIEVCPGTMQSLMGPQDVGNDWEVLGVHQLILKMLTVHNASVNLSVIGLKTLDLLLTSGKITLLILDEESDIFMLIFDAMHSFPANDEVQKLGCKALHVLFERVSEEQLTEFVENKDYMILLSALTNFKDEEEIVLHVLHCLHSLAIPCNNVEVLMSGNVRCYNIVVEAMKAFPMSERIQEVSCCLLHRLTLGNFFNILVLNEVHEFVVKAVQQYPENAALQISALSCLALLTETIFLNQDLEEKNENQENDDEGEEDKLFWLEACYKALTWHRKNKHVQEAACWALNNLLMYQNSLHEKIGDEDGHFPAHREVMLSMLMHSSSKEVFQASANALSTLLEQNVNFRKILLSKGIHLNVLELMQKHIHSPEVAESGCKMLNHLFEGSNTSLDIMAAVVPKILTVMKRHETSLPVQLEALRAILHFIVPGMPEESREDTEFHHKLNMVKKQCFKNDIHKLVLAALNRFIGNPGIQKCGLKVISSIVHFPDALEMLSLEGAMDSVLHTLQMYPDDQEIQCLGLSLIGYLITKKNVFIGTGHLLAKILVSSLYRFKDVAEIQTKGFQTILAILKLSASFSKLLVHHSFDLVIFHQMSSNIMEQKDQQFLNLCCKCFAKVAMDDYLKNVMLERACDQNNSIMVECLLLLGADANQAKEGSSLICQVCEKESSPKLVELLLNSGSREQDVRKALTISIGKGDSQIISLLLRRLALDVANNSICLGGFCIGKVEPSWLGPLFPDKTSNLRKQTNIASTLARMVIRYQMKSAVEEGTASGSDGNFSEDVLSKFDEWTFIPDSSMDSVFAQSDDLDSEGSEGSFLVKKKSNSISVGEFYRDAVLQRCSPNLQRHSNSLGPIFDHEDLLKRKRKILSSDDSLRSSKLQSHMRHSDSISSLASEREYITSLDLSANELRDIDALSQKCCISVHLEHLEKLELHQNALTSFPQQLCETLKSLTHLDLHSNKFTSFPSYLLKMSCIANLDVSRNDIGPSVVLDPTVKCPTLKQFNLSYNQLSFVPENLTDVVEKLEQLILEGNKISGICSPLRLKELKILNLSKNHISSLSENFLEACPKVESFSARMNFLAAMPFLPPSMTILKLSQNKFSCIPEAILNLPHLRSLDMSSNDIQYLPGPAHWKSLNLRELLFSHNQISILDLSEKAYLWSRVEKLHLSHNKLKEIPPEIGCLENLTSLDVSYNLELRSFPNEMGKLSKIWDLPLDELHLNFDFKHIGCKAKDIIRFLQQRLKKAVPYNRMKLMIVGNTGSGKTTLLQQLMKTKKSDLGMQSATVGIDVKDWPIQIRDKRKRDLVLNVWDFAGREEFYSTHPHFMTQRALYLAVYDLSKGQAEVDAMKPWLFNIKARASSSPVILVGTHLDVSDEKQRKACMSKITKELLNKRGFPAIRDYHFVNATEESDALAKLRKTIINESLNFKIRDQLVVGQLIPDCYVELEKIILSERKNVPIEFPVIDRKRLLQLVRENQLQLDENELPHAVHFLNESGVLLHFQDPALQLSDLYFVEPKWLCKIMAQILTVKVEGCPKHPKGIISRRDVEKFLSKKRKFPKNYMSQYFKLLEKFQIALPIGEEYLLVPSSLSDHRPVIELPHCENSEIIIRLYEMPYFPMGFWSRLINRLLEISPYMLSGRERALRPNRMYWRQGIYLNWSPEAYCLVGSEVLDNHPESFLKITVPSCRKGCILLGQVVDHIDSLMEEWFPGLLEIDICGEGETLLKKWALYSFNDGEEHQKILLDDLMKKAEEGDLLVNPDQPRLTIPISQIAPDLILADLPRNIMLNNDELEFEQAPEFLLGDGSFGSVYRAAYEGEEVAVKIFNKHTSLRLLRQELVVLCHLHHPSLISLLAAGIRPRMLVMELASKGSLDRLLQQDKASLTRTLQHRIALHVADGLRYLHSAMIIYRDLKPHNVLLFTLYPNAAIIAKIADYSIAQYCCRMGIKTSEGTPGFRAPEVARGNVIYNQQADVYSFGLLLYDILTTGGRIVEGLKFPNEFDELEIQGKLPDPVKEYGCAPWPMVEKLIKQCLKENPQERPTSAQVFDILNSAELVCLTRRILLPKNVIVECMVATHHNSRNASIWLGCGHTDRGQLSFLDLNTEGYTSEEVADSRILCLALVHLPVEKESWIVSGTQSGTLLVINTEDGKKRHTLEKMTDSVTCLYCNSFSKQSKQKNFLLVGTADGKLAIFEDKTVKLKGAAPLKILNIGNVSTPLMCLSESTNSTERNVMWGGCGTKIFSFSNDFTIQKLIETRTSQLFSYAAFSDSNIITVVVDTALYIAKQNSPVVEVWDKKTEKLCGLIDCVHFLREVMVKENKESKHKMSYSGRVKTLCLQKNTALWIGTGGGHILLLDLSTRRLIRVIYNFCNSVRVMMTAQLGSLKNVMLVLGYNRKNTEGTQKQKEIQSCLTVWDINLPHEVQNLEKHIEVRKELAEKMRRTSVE
T2 sequence (Q5S007 whole entry): as the sequence (Q5S007 whole entry G2019S) above, with S2019G counted along it

| SMILES | DC50 (G2019S LRRK2) [nM] | Dmax (G2019S LRRK2) [%] | Dmax (wildtype LRRK2) [%] | DC50 (wildtype LRRK2) [nM] |
| --- | --- | --- | --- | --- |
| C[C@H]1CN(c2cc(-c3n[nH]c4ccc(OC5(C)CC5)cc34)ncn2)CCN1CCOCCOCCOCCOCCOc1ccc2c(c1)C(=O)N(C1CCC(=O)NC1=O)C2=O (stereo partly drawn) [compound 5, 2-(2,6-dioxopiperidin-3-yl)-5-({14-[(2S)-2-methyl-4-{6-[5-(1-methylcyclopropoxy)-1H-indazol-3-yl]pyrimidin-4-yl}piperazin-1-yl]-3,6,9,12-tetraoxatetradecan-1-yl}oxy)-2,3-dihydro-1H-isoindole-1,3-dione] | 10 to 50 | ≥ 70 | ≥ 70 | 10 to 50 |
| CC(C)Oc1ccc2[nH]nc(-c3cc(N4CCN(CCN5CCN(CC6CCN(c7ccc8c(c7)C(=O)N(C7CCC(=O)NC7=O)C8=O)CC6)CC5)[C@@H](C)C4)ncn3)c2c1 (stereo partly drawn) [compound 26, 2-(2,6-dioxopiperidin-3-yl)-5-{4-[(4-{2-[(2S)-2-methyl-4-{6-[5-(propan-2-yloxy)-1H-indazol-3-yl]pyrimidin-4-yl}piperazin-1-yl]ethyl}piperazin-1-yl)methyl]piperidin-1-yl}-2,3-dihydro-1H-isoindole-1,3-dione] | 10 to 50 | ≥ 70 | ≥ 70 | 10 to 50 |
| CC(C)Oc1ccc2[nH]nc(-c3cc(N4CCN(CC[C@@H]5CCN(CC6CCN(c7ccc8c(c7)C(=O)N(C7CCC(=O)NC7=O)C8=O)CC6)C5)CC4)ncn3)c2c1 (stereo partly drawn) [compound 43, 2-(2,6-dioxopiperidin-3-yl)-5-(4-(((S)-3-(2-(4-(6-(5-isopropoxy-1H-indazol-3-yl)pyrimidin-4-yl)piperazin-1-yl)ethyl)pyrrolidin-1-yl)methyl)piperidin-1-yl)isoindoline-1,3-dione] | 10 to 50 | 50 to 70 | ≥ 70 | 10 to 50 |
| CC(C)Oc1ccc2[nH]nc(-c3cc(N4CCN(CCN5CC6(CN(CCOc7ccc8c(c7)C(=O)N(C7CCC(=O)NC7=O)C8=O)C6)C5)[C@@H](C)C4)ncn3)c2c1 (stereo partly drawn) [compound 35, 2-(2,6-dioxopiperidin-3-yl)-5-[2-(6-{2-[(2S)-2-methyl-4-{6-[5-(propan-2-yloxy)-1H-indazol-3-yl]pyrimidin-4-yl}piperazin-1-yl]ethyl}-2,6-diazaspiro[3.3]heptan-2-yl)ethoxy]-2,3-dihydro-1H-isoindole-1,3-dione] | 50 to 100 | < 50 | < 50 | 50 to 100 |
| CC1(Oc2ccc3[nH]nc(-c4cc(N5CCO[C@H](CCOCCOCCOCCOc6ccc7c(c6)C(=O)N(C6CCC(=O)NC6=O)C7=O)C5)ncn4)c3c2)CC1 (stereo in doubt) [compound 17, 2-(2,6-dioxopiperidin-3-yl)-5-(2-(2-(2-(2-(4-(6-(5-(1-methylcyclopropoxy)-1H-indazol-3-yl)pyrimidin-4-yl)morpholin-2-yl)ethoxy)ethoxy)ethoxy)ethoxy)isoindoline-1,3-dione] | 50 to 100 | ≥ 70 | ≥ 70 | 10 to 50 |
| CC(C)Oc1ccc2[nH]nc(-c3cc(N4CCO[C@@H](CN5CCN(CC6CCN(c7ccc8c(c7)C(=O)N(C7CCC(=O)NC7=O)C8=O)CC6)CC5)C4)ncn3)c2c1 (stereo partly drawn) [compound 47, 2-(2,6-dioxopiperidin-3-yl)-5-(4-((4-(((S)-4-(6-(5-isopropoxy-1H-indazol-3-yl)pyrimidin-4-yl)morpholin-2-yl)methyl)piperazin-1-yl)methyl)piperidin-1-yl)isoindoline-1,3-dione] | 10 to 50 | 50 to 70 | 50 to 70 | < 10 |
| CC(C)Oc1ccc2[nH]nc(-c3cc(N4CCN(CCN5CCN(CC6CCN(c7ccc8c(c7)C(=O)N(C7CCC(=O)NC7=O)C8=O)CC6)CC5)CC4)ncn3)c2c1 (centres unmarked) [compound 39, 2-(2,6-dioxopiperidin-3-yl)-5-(4-((4-(2-(4-(6-(5-isopropoxy-1H-indazol-3-yl)pyrimidin-4-yl)piperazin-1-yl)ethyl)piperazin-1-yl)methyl)piperidin-1-yl)isoindoline-1,3-dione] | 10 to 50 | ≥ 70 | ≥ 70 | < 10 |
| C[C@H]1CN(c2cc(-c3n[nH]c4ccc(OC5(C)CC5)cc34)ncn2)CCN1CCOCCN1CCN(c2ccc3c(c2)C(=O)N(C2CCC(=O)NC2=O)C3=O)CC1 (stereo partly drawn) [compound 20, 2-(2,6-dioxopiperidin-3-yl)-5-[4-(2-{2-[(2S)-2-mcthyl-4-{6-[5-(1-methylcyclopropoxy)-1H-indazol-3-yl]pyrimidin-4-yl}piperazin-1-yl]ethoxy}ethyl)piperazin-1-yl]-2,3-dihydro-1H-isoindole-1,3-dione] | < 10 | 50 to 70 | 50 to 70 | < 10 |
| CC(C)Oc1ccc2[nH]nc(-c3cc(N4CCN(CCN5CC(CCN6CCN(c7ccc8c(c7)C(=O)N(C7CCC(=O)NC7=O)C8=O)CC6)C5)CC4)ncn3)c2c1 (centres unmarked) [compound 46, 2-(2,6-dioxopiperidin-3-yl)-5-(4-(2-(1-(2-(4-(6-(5-isopropoxy-1H-indazol-3-yl)pyrimidin-4-yl)piperazin-1-yl)ethyl)azetidin-3-yl)ethyl)piperazin-1-yl)isoindoline-1,3-dione] |  |  | 50 to 70 | < 10 |

The next lines start with the values.

| DC50 (G2019S LRRK2) [nM] | Dmax (G2019S LRRK2) [%] | Dmax (wildtype LRRK2) [%] | DC50 (wildtype LRRK2) [nM] | SMILES |
| --- | --- | --- | --- | --- |
| < 10 | 50 to 70 | 50 to 70 | < 10 | C[C@@H]1CN(c2cc(-c3n[nH]c4ccc(OC5(C)CC5)cc34)ncn2)C[C@H](C)N1CCOCCOCCOc1ccc2c(c1)C(=O)N(C1CCC(=O)NC1=O)C2=O (stereo partly drawn) [compound 6, 5-[2-(2-{2-[(2R,6S)-2,6-dimethyl-4-{6-[5-(1-methylcyclopropoxy)-1H-indazol-3-yl]pyrimidin-4-yl}piperazin-1-yl]ethoxy}ethoxy)ethoxy]-2-(2,6-dioxopiperidin-3-yl)-2,3-dihydro-1H-isoindole-1,3-dione] |
| < 10 | ≥ 70 | ≥ 70 | < 10 | CC(C)Oc1ccc2[nH]nc(-c3cc(N4CCN(CCN5CCC(CN6CCN(c7ccc8c(c7)C(=O)N(C7CCC(=O)NC7=O)C8=O)CC6)CC5)CC4)ncn3)c2c1 (centres unmarked) [compound 27, 2-(2,6-dioxopiperidin-3-yl)-5-[4-({1-[2-(4-{6-[5-(propan-2-yloxy)-1H-indazol-3-yl]pyrimidin-4-yl}piperazin-1-yl)ethyl]piperidin-4-yl}methyl)piperazin-1-yl]-2,3-dihydro-1H-isoindole-1,3-dione] |
| < 10 | 50 to 70 | ≥ 70 | < 10 | C[C@@H]1CN(c2cc(-c3n[nH]c4ccc(OC5(C)CC5)cc34)ncn2)C[C@H](C)N1CCOCCN1CCN(c2ccc3c(c2)C(=O)N(C2CCC(=O)NC2=O)C3=O)CC1 (stereo partly drawn) [compound 21, 5-[4-(2-{2-[(2R,6S)-2,6-dimethyl-4-{6-[5-(1-methylcyclopropoxy)-1H-indazol-3-yl]pyrimidin-4-yl}piperazin-1-yl]ethoxy}ethyl)piperazin-1-yl]-2-(2,6-dioxopiperidin-3-yl)-2,3-dihydro-1H-isoindole-1,3-dione] |
| 10 to 50 | ≥ 70 | ≥ 70 | < 10 | CC(C)Oc1ccc2[nH]nc(-c3cc(N4CCN(CCN5CCC(CN6CCN(c7ccc8c(c7)CN(C7CCC(=O)NC7=O)C8=O)CC6)CC5)[C@@H](C)C4)ncn3)c2c1 (stereo partly drawn) [compound 31, 3-(5-{4-[(1-{2-[(2S)-2-methyl-4-{6-[5-(propan-2-yloxy)-1H-indazol-3-yl]pyrimidin-4-yl}piperazin-1-yl]ethyl}piperidin-4-yl)methyl]piperazin-1-yl}-1-oxo-2,3-dihydro-1H-isoindol-2-yl)piperidine-2,6-dione] |

From patent US20250114356A1, “INDAZOLE BASED COMPOUNDS AND ASSOCIATED METHODS OF USE” (Arvinas Operations, Inc., priority 2020, published 2025)
